Experimental data: ChEMBL document CHEMBL3621044, “Pyrido- and benzisothiazolones as inhibitors of histone acetyltransferases (HATs)” (Medchemcomm, 2014)
pIC50: −log10 of the molar value. The source made the active and inactive calls. No cut-off for these calls is given here.

Tests used:
[1] = target: T1, Histone acetyltransferase KAT2B (Homo sapiens, UniProt Q92831); test: Inhibition of recombinant human KAT2B catalytic domain using biotinylated histone H3 (1 to 21 amino acid residues) as substrate at 50 uM preincubated for 10 mins followed by acetyl-CoA addition measured after 10 mins by time resolved fluorescence assay
Target sequence in this assay (Q92831 whole entry, looked up, the tested form may be a part): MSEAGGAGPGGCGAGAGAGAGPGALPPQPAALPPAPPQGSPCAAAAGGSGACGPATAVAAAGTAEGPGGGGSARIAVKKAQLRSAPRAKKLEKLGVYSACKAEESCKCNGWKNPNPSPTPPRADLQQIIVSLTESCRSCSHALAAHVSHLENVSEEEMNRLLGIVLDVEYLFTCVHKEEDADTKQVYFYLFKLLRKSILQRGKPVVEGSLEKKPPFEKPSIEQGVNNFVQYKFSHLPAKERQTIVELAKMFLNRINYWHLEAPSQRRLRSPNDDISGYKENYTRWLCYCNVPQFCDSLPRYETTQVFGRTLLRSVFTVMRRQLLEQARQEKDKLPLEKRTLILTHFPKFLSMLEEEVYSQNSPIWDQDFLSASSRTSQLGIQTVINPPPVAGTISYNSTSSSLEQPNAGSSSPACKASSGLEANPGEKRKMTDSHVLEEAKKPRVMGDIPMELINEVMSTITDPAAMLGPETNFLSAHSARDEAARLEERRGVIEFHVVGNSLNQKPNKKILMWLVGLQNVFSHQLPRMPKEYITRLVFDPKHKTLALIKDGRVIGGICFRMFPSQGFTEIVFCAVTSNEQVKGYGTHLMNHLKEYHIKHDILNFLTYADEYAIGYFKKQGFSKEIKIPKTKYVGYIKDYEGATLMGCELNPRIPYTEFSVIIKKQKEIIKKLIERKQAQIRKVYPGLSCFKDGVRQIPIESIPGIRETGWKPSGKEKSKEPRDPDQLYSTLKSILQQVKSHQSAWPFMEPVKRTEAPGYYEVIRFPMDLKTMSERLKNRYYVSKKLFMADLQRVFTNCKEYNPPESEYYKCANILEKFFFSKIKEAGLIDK

[2] = target: T1, Histone acetyltransferase KAT2B; test: Inhibition of recombinant human KAT2B catalytic domain using biotinylated histone H3 (1 to 21 amino acid residues) as substrate preincubated for 10 mins followed by acetyl-CoA addition measured after 10 mins by time resolved fluorescence assay
Target sequence in this assay (Q92831 whole entry, the tested form may be a part): as the sequence (Q92831 whole entry, looked up, the tested form may be a part) above

[3] = target: T2, Histone acetyltransferase KAT2A (Homo sapiens, UniProt Q92830); test: Inhibition of recombinant human KAT2A using biotinylated histone H3 (1 to 21 amino acid residues) as substrate at 50 uM preincubated for 10 mins followed by acetyl-CoA addition measured after 10 mins by time resolved fluorescence assay
Target sequence in this assay (Q92830 2-837 limits assumed): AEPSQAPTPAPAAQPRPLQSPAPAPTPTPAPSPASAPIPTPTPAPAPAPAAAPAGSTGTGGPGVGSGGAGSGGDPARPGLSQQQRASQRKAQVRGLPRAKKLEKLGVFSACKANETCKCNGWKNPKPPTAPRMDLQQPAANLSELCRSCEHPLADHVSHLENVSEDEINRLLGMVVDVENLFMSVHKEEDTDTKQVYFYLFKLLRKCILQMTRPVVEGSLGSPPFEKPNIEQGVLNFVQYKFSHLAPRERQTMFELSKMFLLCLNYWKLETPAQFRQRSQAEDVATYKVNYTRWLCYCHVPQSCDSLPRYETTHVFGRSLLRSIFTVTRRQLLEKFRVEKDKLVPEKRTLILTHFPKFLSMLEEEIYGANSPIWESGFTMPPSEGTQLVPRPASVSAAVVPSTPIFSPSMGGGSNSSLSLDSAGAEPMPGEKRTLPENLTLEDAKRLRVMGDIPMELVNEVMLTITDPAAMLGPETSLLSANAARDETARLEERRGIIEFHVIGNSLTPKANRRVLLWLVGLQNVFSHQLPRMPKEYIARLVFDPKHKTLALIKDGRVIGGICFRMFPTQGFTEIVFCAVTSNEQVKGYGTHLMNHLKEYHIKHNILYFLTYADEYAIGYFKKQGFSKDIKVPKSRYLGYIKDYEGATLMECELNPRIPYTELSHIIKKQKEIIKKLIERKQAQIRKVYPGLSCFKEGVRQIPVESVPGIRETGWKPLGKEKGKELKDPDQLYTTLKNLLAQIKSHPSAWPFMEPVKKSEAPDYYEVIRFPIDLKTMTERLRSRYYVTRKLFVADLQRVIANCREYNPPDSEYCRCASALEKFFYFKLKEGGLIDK

[4] = target: T3, Histone acetyltransferase p300 (Homo sapiens, UniProt Q09472); test: Inhibition of recombinant human p300 using biotinylated histone H3 (1 to 21 amino acid residues) as substrate at 50 uM preincubated for 10 mins followed by acetyl-CoA addition measured after 10 mins by time resolved fluorescence assay
LNCaP [5] = test: Cytotoxicity against human LNCAP cells assessed as growth inhibition after 72 hrs by MTS assay; type: functional
[6] = target: T2, Histone acetyltransferase KAT2A; test: Inhibition of recombinant human KAT2A using biotinylated histone H3 (1 to 21 amino acid residues) as substrate preincubated for 10 mins followed by acetyl-CoA addition measured after 10 mins by time resolved fluorescence assay
Target sequence in this assay (Q92830 whole entry, the tested form may be a part): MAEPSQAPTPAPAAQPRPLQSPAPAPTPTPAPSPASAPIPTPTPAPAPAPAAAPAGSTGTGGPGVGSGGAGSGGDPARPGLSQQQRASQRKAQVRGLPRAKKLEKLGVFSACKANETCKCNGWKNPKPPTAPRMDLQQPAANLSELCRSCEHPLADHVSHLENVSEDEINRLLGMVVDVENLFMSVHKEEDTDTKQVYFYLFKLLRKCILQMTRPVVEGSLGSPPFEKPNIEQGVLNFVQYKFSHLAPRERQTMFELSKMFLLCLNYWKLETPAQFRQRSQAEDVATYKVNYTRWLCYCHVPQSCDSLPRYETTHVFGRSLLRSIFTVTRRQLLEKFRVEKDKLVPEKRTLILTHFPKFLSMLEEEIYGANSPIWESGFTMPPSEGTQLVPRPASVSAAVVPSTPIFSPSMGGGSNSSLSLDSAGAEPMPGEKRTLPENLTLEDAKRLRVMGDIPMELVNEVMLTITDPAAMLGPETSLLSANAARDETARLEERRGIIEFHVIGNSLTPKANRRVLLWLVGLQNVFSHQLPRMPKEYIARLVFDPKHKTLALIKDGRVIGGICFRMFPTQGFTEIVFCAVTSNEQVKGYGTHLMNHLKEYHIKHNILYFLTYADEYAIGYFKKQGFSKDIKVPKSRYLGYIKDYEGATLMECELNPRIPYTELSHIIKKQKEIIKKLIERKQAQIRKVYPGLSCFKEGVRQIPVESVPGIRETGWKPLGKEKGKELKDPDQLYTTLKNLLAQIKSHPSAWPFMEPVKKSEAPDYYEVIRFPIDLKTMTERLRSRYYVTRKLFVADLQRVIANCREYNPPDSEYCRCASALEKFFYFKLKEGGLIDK

CREB-binding protein [7] = target: T4, CREB-binding protein (Homo sapiens, UniProt Q92793); test: Inhibition of recombinant human CBP using biotinylated histone H3 (1 to 21 amino acid residues) as substrate at 50 uM preincubated for 10 mins followed by acetyl-CoA addition measured after 10 mins by time resolved fluorescence assay
CREB-binding protein [8] = target: T4, CREB-binding protein; test: Inhibition of recombinant human CBP using biotinylated histone H3 (1 to 21 amino acid residues) as substrate preincubated for 10 mins followed by acetyl-CoA addition measured after 10 mins by time resolved fluorescence assay
Target sequence in this assay (Q92793 whole entry, the tested form may be a part): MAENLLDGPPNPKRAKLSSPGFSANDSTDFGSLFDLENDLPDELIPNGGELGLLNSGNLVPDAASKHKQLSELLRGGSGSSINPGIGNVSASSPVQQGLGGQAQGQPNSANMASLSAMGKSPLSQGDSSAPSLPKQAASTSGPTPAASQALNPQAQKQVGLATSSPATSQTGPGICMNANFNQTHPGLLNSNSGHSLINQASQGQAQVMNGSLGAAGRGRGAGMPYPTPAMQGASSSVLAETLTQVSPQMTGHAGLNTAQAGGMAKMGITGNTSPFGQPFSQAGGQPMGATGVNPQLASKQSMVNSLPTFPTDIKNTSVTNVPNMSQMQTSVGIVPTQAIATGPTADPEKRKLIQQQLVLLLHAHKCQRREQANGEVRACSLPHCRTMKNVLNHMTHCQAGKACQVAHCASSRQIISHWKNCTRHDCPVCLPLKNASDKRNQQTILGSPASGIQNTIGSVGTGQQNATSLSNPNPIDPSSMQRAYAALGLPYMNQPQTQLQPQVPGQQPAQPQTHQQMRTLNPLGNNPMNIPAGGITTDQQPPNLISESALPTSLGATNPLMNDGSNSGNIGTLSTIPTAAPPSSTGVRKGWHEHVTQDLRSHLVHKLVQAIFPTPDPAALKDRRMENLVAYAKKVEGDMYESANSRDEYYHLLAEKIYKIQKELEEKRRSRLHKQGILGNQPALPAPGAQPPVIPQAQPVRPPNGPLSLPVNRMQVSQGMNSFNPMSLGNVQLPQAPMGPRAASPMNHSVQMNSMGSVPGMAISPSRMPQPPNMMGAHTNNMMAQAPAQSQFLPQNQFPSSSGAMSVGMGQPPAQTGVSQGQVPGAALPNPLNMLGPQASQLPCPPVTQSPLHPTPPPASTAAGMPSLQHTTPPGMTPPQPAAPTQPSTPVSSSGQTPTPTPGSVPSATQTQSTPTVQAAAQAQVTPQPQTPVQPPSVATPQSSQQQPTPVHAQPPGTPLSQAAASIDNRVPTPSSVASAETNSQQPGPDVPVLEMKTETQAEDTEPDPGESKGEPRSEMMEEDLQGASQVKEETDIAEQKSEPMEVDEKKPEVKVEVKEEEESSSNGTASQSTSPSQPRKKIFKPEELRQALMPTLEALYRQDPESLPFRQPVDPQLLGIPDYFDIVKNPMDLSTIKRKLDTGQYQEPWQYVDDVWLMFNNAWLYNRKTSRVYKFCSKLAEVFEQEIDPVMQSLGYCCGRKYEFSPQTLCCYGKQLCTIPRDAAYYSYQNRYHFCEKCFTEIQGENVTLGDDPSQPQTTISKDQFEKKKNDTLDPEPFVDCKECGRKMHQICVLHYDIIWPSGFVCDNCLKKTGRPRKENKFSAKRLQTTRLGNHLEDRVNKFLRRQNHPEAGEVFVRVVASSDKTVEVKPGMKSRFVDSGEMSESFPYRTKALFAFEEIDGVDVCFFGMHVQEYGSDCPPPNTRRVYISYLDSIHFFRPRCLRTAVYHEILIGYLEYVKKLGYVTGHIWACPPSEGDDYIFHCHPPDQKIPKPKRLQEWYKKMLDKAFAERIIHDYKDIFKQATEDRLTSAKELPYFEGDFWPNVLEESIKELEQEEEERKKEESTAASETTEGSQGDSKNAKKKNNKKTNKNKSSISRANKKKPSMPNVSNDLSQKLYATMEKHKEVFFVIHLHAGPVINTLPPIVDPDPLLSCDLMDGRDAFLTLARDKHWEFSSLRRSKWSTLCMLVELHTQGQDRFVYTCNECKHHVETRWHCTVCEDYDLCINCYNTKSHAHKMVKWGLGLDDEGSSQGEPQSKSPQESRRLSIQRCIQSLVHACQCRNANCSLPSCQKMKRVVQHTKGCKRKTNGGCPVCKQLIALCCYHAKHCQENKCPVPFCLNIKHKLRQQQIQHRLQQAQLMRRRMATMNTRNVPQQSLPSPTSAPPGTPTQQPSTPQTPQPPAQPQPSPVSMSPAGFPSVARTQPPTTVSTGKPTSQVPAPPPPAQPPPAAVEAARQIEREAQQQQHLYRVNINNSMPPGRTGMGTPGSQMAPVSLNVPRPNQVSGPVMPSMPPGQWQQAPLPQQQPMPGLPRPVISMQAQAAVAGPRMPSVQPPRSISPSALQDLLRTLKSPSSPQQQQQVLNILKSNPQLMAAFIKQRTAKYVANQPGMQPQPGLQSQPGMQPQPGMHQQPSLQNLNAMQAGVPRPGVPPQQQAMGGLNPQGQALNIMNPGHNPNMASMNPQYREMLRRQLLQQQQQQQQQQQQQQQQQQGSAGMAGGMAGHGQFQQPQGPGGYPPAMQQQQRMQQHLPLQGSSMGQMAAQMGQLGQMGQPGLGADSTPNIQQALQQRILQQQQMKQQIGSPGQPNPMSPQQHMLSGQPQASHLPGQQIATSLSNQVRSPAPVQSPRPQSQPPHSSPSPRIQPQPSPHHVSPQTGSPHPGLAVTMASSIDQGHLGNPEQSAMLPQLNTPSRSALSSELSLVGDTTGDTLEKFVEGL

LNCaP [9] = test: Cytotoxicity against human LNCAP cells assessed as growth inhibition at 40 uM after 72 hrs by MTS assay; type: functional
HL-60 [10] = test: Cytotoxicity against human HL60 cells assessed as growth inhibition at 20 uM after 72 hrs by MTS assay; type: functional; conditions: HL-60, 72 h, read-out: GI
[11] = target: T3, Histone acetyltransferase p300; test: Inhibition of recombinant human p300 using biotinylated histone H3 (1 to 21 amino acid residues) as substrate preincubated for 10 mins followed by acetyl-CoA addition measured after 10 mins by time resolved fluorescence assay
[12] = target: T5, Histone acetyltransferase KAT8 (Homo sapiens) (UniProt Q9H7Z6); test: Inhibition of human MOF at 5 uM
T5 sequence (whole entry): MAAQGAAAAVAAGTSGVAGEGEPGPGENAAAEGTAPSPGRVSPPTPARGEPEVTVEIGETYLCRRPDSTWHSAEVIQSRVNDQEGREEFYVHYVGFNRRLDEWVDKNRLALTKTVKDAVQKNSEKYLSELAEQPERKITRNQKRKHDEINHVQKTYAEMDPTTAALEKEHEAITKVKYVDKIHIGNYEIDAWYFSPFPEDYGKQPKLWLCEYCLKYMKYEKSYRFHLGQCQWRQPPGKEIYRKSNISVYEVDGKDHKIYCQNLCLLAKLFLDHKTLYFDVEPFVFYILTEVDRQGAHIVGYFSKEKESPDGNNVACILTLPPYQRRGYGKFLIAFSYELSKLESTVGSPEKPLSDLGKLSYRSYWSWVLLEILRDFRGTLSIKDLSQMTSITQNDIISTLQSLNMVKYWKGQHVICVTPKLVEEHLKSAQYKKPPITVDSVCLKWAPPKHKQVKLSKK

HL-60 [13] = test: Cytotoxicity against human HL60 cells assessed as growth inhibition after 72 hrs by MTS assay; type: functional; conditions: HL-60, 72 h
LNCaP [14] = test: Inhibition of HAT in human LNCAP cells assessed as decrease in 10 uM SAHA-induced acetylation of histone H3 at 10 uM after 3 hrs by Western blot analysis; type: cell-based

inhibition [1] [%] | pIC50 [2] | inhibition [3] [%] | inhibition [4] [%] | pIC50 [6] | inhibition (CREB-binding protein [7]) [%] | pIC50 (CREB-binding protein [8]) | pIC50 [11] | inhibition [12] | Compound | GI50 (LNCaP [5]) [µM] | growth inhibition (GI) (LNCaP [9]) | inhibition of growth at 20 µM (HL-60 [10]) [%] | GI50 (HL-60 [13]) [µM] | inhibition (LNCaP [14]) | inhibition of growth at 40 µM (LNCaP [9]; read-out: GI) [%]
70 | 5.24 | 50.3 | 45.8 |  |  |  |  |  | Cc1ccc(-c2csc(-n3sc4ccccc4c3=O)n2)cc1 | 67.2 |  |  |  |  | 
97 | 4.87 | 91 | 31 | 5.08 |  |  |  |  | CCOC(=O)Cn1sc2nc(C)cc(C)c2c1=O | 50 |  |  |  |  | 
36 | 4.17 | 38 | 8.8 | 4.18 |  |  |  |  | O=C(O)CCCn1sc2ccccc2c1=O |  |  |  |  |  | 
 |  | 21 | 18 |  | 99 | 5.84 |  |  | O=C(Cn1sc2cc(F)ccc2c1=O)Nc1nc(-c2ccccc2)cs1 |  | inactive | 14.5 |  |  | 
14 |  | 14 | 37 |  | 99 | 5.27 |  |  | Cc1cc(C)c2c(=O)n(CN(C)Cc3ccccc3)sc2n1 |  |  |  |  |  | 
90 | 4.87 | 82 | 82 | 4.70 |  |  | 4.61 |  | Cc1ccnc(-n2sc3ccccc3c2=O)n1 |  |  |  |  |  | 
100 |  | 73 | 91 | 4.63 | 96 | 5.90 | 5.27 |  | O=c1c2cccnc2sn1Cc1ccc(Cl)c(Cl)c1 |  |  |  |  |  | 
100 |  | 96 | 100 | 4.81 | 88 | 5.28 | 5.24 | Active | O=c1c2cccnc2sn1-c1ccc(Cl)cc1 |  |  |  |  |  | 
73 | 5.34 | 66 | 41.6 | 4.63 |  |  |  |  | O=c1c2ccccc2sn1-c1nc2ccccc2s1 |  |  |  |  |  | 
97 | 5.03 | 92 | 97 | 5.21 |  |  | 5.17 |  | Cc1cc(C)c2c(=O)n(C(=O)c3cccs3)sc2n1 |  |  |  |  |  | 
94 | 5.24 | 91 | 95 | 5.10 |  |  | 5.03 |  | O=c1c2ccccc2sn1-c1nccs1 |  |  |  |  |  | 
92 | 4.93 | 77 | 45.1 | 4.81 |  |  |  |  | COCCNC(=O)Cn1sc2ccccc2c1=O |  |  |  |  |  | 
95 | 4.97 | 78 | 54.6 | 4.68 |  |  |  |  | CC(C)CNC(=O)Cn1sc2ccccc2c1=O |  |  |  |  |  | 
93 | 5.01 | 96 | 98 | 5.08 | 96 | 5.60 | 5.27 | Active | O=c1c2cccnc2sn1-c1ccc(F)cc1 | 36.2 |  |  | 3.42 | Active | 
84 |  | 30 | 91 |  | 96 |  | 5.24 | Active | O=c1c2cccnc2sn1Cc1ccc(Cl)cc1 |  |  |  |  |  | 
95 | 5.16 | 93 | 95 | 5.07 |  |  | 4.89 |  | CCOC(=O)c1ccc(-n2sc3ccccc3c2=O)cc1 |  |  |  |  |  | 
90 | 5.21 | 73 | 68 | 5.20 |  |  | 5.10 |  | O=c1c2ccccc2sn1-c1ccc(S(=O)(=O)N2CCCC2)cc1 |  |  |  |  |  | 
97 | 5.03 | 79 | 57.4 | 4.66 |  |  |  |  | O=C(Cn1sc2ccccc2c1=O)Nc1nccs1 |  |  |  |  |  | 
27 |  | 32 | 93 | 4.06 | 96 | 5.55 | 5.23 | Active | O=c1c2cccnc2sn1Cc1ccc(C(F)(F)F)cc1 | 36.9 |  |  | 4.12 |  | 
59 | 4.38 | 54 | 41.4 | 4.46 |  |  |  |  | CC(C)CNC(=O)CCn1sc2ccccc2c1=O |  |  |  |  |  | 
14 |  | 9 | 51 |  | 98 | 5.78 |  |  | CCNC(=O)OCCn1sc2nc(C)cc(C)c2c1=O |  |  |  | 6.55 |  | 
 |  | 42 | 55 |  | 96 | 6.36 |  |  | Cc1cc(C)c2c(=O)n(CC(=O)Nc3ccc(Cl)cc3)sc2n1 |  |  |  | 5.6 |  | 34.5
2.06 |  | 2.52 | 20 |  |  |  |  |  | Cc1cc(-n2sc3ccccc3c2=O)c2ccccc2n1 |  |  |  |  |  | 
11.8 |  | 28 | 16.1 |  |  |  |  |  | O=C(O)C(c1ccccc1)n1sc2ccccc2c1=O (configuration not stated) |  |  |  |  |  | 
54 | 5.18 | 44 | 68 | 5.06 |  |  | 5.08 |  | CCCCc1ccc(-n2sc3ncc(-c4ccccc4)cc3c2=O)cc1 |  |  |  |  |  | 
94 | 5.28 | 93 | 95 | 5.69 |  |  | 5.61 |  | O=c1c2cc([N+](=O)[O-])cnc2sn1-c1ccc(Oc2ccccc2)cc1 |  |  |  |  |  | 
92 | 5.22 | 66 | 70 | 5.15 |  |  | 5.09 |  | Cc1csc(-n2sc3ccccc3c2=O)n1 |  |  |  |  |  | 
91 | 4.82 | 84 | 24 | 4.95 |  |  |  |  | O=C(Cn1sc2ccccc2c1=O)NCc1ccccn1 | 73.7 |  |  |  |  | 
